Test results reported in patent US12410160B2 (Gilead Sciences, Inc., priority 2021, dated 2025).

Columns and labels:
human KHK-C = human KHK-C (Homo sapiens (Human), UniProt P50053); assay: KHK Biochemical Assay (IC50), ADP-Glo, KHK-C; conditions: average of at least two separate assays
How it was run: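 Luminescent ADP-Glo read-out of ADP made by His-tagged KHK (BL21 (DE3) expression, Ni-NTA). Enzyme and compound sat together 30 min before ATP/fructose addition, then reacted 4 h at RT in Hepes pH 7.4 buffer with KCl, MgCl2, Triton-X. Quench 1 h, detection 1 h.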

human KHK-A = human KHK-A (Homo sapiens (Human), UniProt P50053); assay: KHK Biochemical Assay (IC50), ADP-Glo, KHK-A; conditions: average of at least two separate assays
Sequence of human KHK-A (P50053 other isoform, or with tags, fused parts or gaps): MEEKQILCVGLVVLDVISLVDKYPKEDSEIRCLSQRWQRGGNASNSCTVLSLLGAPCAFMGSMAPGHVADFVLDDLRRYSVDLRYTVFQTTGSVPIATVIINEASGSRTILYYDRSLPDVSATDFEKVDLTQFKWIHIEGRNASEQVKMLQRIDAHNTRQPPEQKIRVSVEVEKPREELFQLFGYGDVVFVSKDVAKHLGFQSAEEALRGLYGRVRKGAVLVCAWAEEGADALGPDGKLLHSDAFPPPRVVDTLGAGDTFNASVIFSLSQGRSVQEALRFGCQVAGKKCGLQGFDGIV
Procedure: The His-tagged fusion protein was expressed using BL21 (DE3) with IPTG induction and purified using Ni-NTA column followed by dialysis into final buffer containing 25 mM Tris-HCl pH 8.0, 250 mM NaCl.
KHK Biochemical Assay (IC50)
Compounds were tested for KHK enzyme inhibition in a high-throughput 384-well assay format using the ADP-Glo assay (Promega) in buffer consisting of 50 mM Hepes (pH 7.4), 140 mM KCl, 5 mM MgCl2 and 0.01% Triton-X. 0.2 nM. […] Compounds were serially diluted (1:3) in DMSO.
The compounds were pre-incubated with 5 μL of 2× final enzyme concentration for 30 minutes before adding 5 μL of 2× final concentration of ATP and fructose. The plates were incubated at room temperature for 4 hours before adding ADP-Glo reagent to quench the enzyme reaction, followed by incubation at room temperature for 1 hour. The ADP-Glo detection reagent was then added to the plates and luminescence was measured on the Envision plate reader after 1 hour.

Sequence of human KHK-C (P50053 whole entry): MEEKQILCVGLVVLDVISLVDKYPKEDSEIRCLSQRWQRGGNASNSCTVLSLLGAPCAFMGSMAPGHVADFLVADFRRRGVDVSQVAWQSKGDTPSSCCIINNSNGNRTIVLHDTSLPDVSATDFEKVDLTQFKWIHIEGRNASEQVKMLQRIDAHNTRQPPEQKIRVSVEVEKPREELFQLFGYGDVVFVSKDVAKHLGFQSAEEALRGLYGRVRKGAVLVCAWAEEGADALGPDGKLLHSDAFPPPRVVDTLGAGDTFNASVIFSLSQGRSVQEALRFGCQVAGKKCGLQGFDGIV

Row | Compound | IC50 (human KHK-C) [nM] | IC50 (human KHK-A) [nM] | IC50 (human KHK-C; ADP-Glo) [nM] | IC50 (human KHK-A; ADP-Glo) [nM]
1 | COc1cc(-c2nc(N3C[C@@H](O)[C@@H]3C)nc3c2CCC3(F)F)cc(S(C)(=N)=O)c1 (stereo partly drawn) [Example 719, (3-(7,7-difluoro-2-((2S,3R)-3-hydroxy-2-methylazetidin-1-yl)-6,7-dihydro-5H-cyclopenta[d]pyrimidin-4-yl)-5-methoxyphenyl)(imino)(methyl)-λ^6-sulfanone] | 21.7 | 32.1 | – | –
2 | C[C@H]1CCN1c1nc2c(c(-c3ccc4c(c3)NC(=O)CNC4)n1)CCC2 [Example 855, (S)-8-(2-(2-methylazetidin-1-yl)-6,7-dihydro-5H-cyclopenta[d]pyrimidin-4-yl)-1,3,4,5-tetrahydro-2H-benzo[e][1,4]diazepin-2-one] | – | – | 80.5 | 84.9
3 | C[C@H]1CCN1c1nc2c(c(-c3cc4c(s3)C(=O)NC(C)(C)N4)n1)CCC2 [Example 866, (S)-2,2-dimethyl-6-(2-(2-methylazetidin-1-yl)-6,7-dihydro-5H-cyclopenta[d]pyrimidin-4-yl)-2,3-dihydrothieno[3,2-d]pyrimidin-4(1H)-one] | – | – | 27.7 | 18.9
4 | COC(=O)N[C@@H]1COc2cc(-c3nc(N4C[C@@H](O)[C@@H]4C)nc4c3CCC4(F)F)cc(OC)c21 (single isomer, unassigned) [Example 833] | – | – | 4 | 99.8
5 | O=C1NC(=O)C2(COc3cc(-c4nc(N5CC[C@@H]5C(F)(F)F)nc5c4CCC5(F)F)ccc32)N1 (stereo partly drawn) [Example 703, 6-[7,7-difluoro-2-[(2R)-2-(trifluoromethyl)azetidin-1-yl]-5,6-dihydrocyclopenta[d]pyrimidin-4-yl]spiro[2H-benzofuran-3,5′-imidazolidine]-2′,4′-dione] | 0.4 | 1 | – | –
6 | NC1(c2ccc(-c3nc(N4CC[C@@H]4C(F)F)nc4c3CCC4(F)F)cc2)CS(=O)(=O)C1 (single isomer, unassigned) [Example 800] | – | – | 1.3 | 7.8
7 | C[C@H]1CCN1c1nc2c(c(-c3cc(C(N)=O)cc([N+](=O)[O-])c3)n1)CCC2 [Example 298, (S)-3-(2-(2-methylazetidin-1-yl)-6,7-dihydro-5H-cyclopenta[d]pyrimidin-4-yl)-5-nitrobenzamide] | – | – | 247 | 374
8 | Cc1cc(-c2nc(N3CC[C@@H]3C)nc3c2CCC3)ccc1C(=O)NCCO [Example 356, N-(2-hydroxyethyl)-2-methyl-4-[2-[(2S)-2-methylazetidin-1-yl]-6,7-dihydro-5H-cyclopenta[d]pyrimidin-4-yl]benzamide] | – | – | 79.9 | 70.6
9 | C[C@H]1CCN1c1nc2c(c(-c3ccc4c(c3)C(O)CC4NS(C)(=O)=O)n1)CCC2 (stereo partly drawn) [Example 888, N-(3-hydroxy-5-(2-((S)-2-methylazetidin-1-yl)-6,7-dihydro-5H-cyclopenta[d]pyrimidin-4-yl)-2,3-dihydro-1H-inden-1-yl)methanesulfonamide] | – | – | 4.1 | 51.3
10 | COc1cc(-c2nc(N3CC[C@@H]3C(F)(F)F)nc3c2CCC3(F)F)ccc1C1(N)COC1 [Example 837, (R)-3-(4-(7,7-difluoro-2-(2-(trifluoromethyl)azetidin-1-yl)-6,7-dihydro-5H-cyclopenta[d]pyrimidin-4-yl)-2-methoxyphenyl)oxetan-3-amine] | – | – | 0.7 | 1
11 | C[C@H]1CCN1c1nc2c(c(-c3nc4ccc(C(N)=O)cc4s3)n1)CCC2 [Example 857, (S)-2-(2-(2-methylazetidin-1-yl)-6,7-dihydro-5H-cyclopenta[d]pyrimidin-4-yl)benzo[d]thiazole-6-carboxamide] | – | – | 149 | 141
12 | Cc1cc(-c2nc(N3C[C@@H](O)[C@@H]3C)nc3c2CCC3(F)F)cc(S(C)(=N)=O)c1 (stereo partly drawn) [Example 720, (3-(7,7-difluoro-2-((2S,3R)-3-hydroxy-2-methylazetidin-1-yl)-6,7-dihydro-5H-cyclopenta[d]pyrimidin-4-yl)-5-methylphenyl)(imino)(methyl)-λ^6-sulfanone] | 8.8 | 11.6 | – | –
